From patent publication US5354864A, “3-(9-acridinylamino)-5-hydroxymethylaniline derivatives as anticancer agents” (Sloan-Kettering Institute for Cancer Research, priority 1992, dated 1994)
Like-named read-outs stand apart in the source and are kept apart here.

Legend:
L1210 tumor = test: Chemotherapeutic effects on L1210 tumor bearing BDF^1 mice; assay type: in vivo, mouse; conditions: day 1, QD × 4 + Day 7, QD × 2; for % Increase in lifespan: 25% or greater indicates therapeutic activity; for Average survival time: control 7.2 days
Text: Table 2 lists typical examples of chemotherapeutic effects of 3-(9-acridinylamino)-5-hydroxymethylaniline derivatives of formula I on L1210 tumor bearing BDF^1 mice in vivo.
^a Female mice, 19-21 grams, inoculated with 10^6 L1210 cells i.p
treatment schedule was day 1, QD × 4 + Day 7, QD × 2, i.p.

[1] = tested on: human leukemia HL-60 cells; test: In vitro cytotoxicity, growth inhibition of human leukemia HL-60 cells; assay type: cell-based
[2] = tested on: mouse leukemia L1210 cells; test: In vitro cytotoxicity, growth inhibition of mouse leukemia L1210 cells; assay type: cell-based
[3] = Lethal doses to BDF^1 mice; assay type: in vivo; conditions: i.p.
Text: ^b Lethal Doses of these compounds to BDF^1 mice have been

topoisomerase II = conditions: Nelson et al. 1984; Pommier et al. 1985; cited from earlier work
solid tumors = conditions: Casper et al. 1980; cited from earlier work
DNA [4] = conditions: Wilson et al. 1984; cited from earlier work
L1210 leukemia = conditions: Cain et al., J. Med. Chem. 1975; cited from earlier work
experimental tumors = conditions: Corbett et al. 1977; Goldin et al. 1981; cited from earlier work
[5] = 37° C.; cited from earlier work
DNA [6] = conditions: Nelson et al. 1984; Pommier et al. 1985; cited from earlier work
[7] = human leukemia HL-60, read-out: IC50 for Cell growth Inhibition, HL60
[8] = mouse leukemia L1210, read-out: IC50 for Cell growth Inhibition, L1210

For `Nc1cc(CO)cc(Nc2c3ccccc3nc3ccccc23)c1` [Ia, 3-(9-acridinylamino)-5-hydroxymethylaniline], the “% Increase in lifespan” value (L1210 tumor; 5 mg/kg i.p.) was 94%, the “Average weight change, Day 7” value (L1210 tumor; 5 mg/kg i.p.) was “+1.0 grams” and the “Average weight change, Day 11” value (L1210 tumor; 5 mg/kg i.p.) was “+2.0 grams”. For the same molecule, the Average survival time (L1210 tumor; 5 mg/kg i.p.) was 14.0 days, the “% Increase in lifespan” value (L1210 tumor; 10 mg/kg i.p.) was 108% and the “Average weight change, Day 7” value (L1210 tumor; 10 mg/kg i.p.) was -0.5 grams. The “Average weight change, Day 11” value (L1210 tumor; 10 mg/kg i.p.) was “+0.0 grams”, the Average survival time (L1210 tumor; 10 mg/kg i.p.) was 15.0 days and the IC50 [1, 7] was 97 nM. For the same molecule, the IC50 [2, 8] was 26 nM and the “Lethal dose to BDF^1 mice” value ([3]; QD Day 1-Day 4 + Day 7) was 20 mg/kg.
For `CC(=O)CCC(=O)Nc1cc(COC(=O)CCC(C)=O)cc(Nc2c3ccccc3nc3ccccc23)c1` [Ib, 3-(9-acridinylamino)-N,O-bis(acetonylacetyl)-5-hydroxymethylaniline], the “% Increase in lifespan” value (L1210 tumor; 5 mg/kg i.p.) was 25%, the “Average weight change, Day 7” value (L1210 tumor; 5 mg/kg i.p.) was “+2.0 grams” and the Average survival time (L1210 tumor; 5 mg/kg i.p.) was 9.0 days. The “% Increase in lifespan” value (L1210 tumor; 10 mg/kg i.p.) was 53%, the “Average weight change, Day 7” value (L1210 tumor; 10 mg/kg i.p.) was “+2.0 grams” and the Average survival time (L1210 tumor; 10 mg/kg i.p.) was 11.0 days. The “% Increase in lifespan” value (L1210 tumor; 20 mg/kg i.p.) was 94%, the “Average weight change, Day 7” value (L1210 tumor; 20 mg/kg i.p.) was -3.0 grams and the “Average weight change, Day 11” value (L1210 tumor; 20 mg/kg i.p.) was -4.0 grams. It also gave an Average survival time (L1210 tumor; 20 mg/kg i.p.) of 14.0 days, an IC50 [1, 7] of 3 nM and an IC50 [2, 8] of 98 nM. For the same molecule, the “Lethal dose to BDF^1 mice” value ([3]; QD Day 1-Day 4, Day 7-Day 8) was 50 mg/kg.
With `CC(=O)CCC(=O)Nc1cc(CO)cc(Nc2c3ccccc3nc3ccccc23)c1` [Ic, 3-(9-acridinylamino)-5-hydroxymethyl-N-acetonylacetylaniline] the “% Increase in lifespan” value (L1210 tumor; 5 mg/kg i.p.) was 53%, the “Average weight change, Day 7” value (L1210 tumor; 5 mg/kg i.p.) was “+2.0 grams” and the Average survival time (L1210 tumor; 5 mg/kg i.p.) was 11.0 days. The “% Increase in lifespan” value (L1210 tumor; 10 mg/kg i.p.) was 25%, the “Average weight change, Day 7” value (L1210 tumor; 10 mg/kg i.p.) was “+1.5 grams” and the Average survival time (L1210 tumor; 10 mg/kg i.p.) was 9.0 days. The “% Increase in lifespan” value (L1210 tumor; 20 mg/kg i.p.) was 192%, the “Average weight change, Day 7” value (L1210 tumor; 20 mg/kg i.p.) was -1.5 grams and the “Average weight change, Day 11” value (L1210 tumor; 20 mg/kg i.p.) was -2.0 grams. It also gave an Average survival time (L1210 tumor; 20 mg/kg i.p.) of 21.0 days, an IC50 [1, 7] of 5 nM and an IC50 [2, 8] of 73 nM. The “Lethal dose to BDF^1 mice” value ([3]; QD Day 1-Day 4, Day 7-Day 8) was 50 mg/kg.
Molecule `O=C(O)CCC(=O)Nc1cc(COC(=O)CCC(=O)O)cc(Nc2c3ccccc3nc3ccccc23)c1` [Id, 3-(9-acridinylamino)-5-succinyloxymethyl-N-succinylaniline] has an IC50 [1, 7] of 859 nM and an IC50 [2, 8] of 2000 nM.
For `O=C(O)CCC(=O)Nc1cc(CO)cc(Nc2c3ccccc3nc3ccccc23)c1` [Ie, 3-(9-acridinylamino)-5-hydroxymethyl-N-succinylaniline], the IC50 [1, 7] was 999 nM and the IC50 [2, 8] was 1070 nM.
In the case of `COc1cc(NS(C)(=O)=O)ccc1Nc1c2ccccc2nc2ccccc12` [m-AMSA, 4'-(9-acridinylamino)methanesulfon-m-anisidide], the “topoisomerase II inhibition” value (topoisomerase II) is given as “topoisomerase II inhibitor”, the “activity against a number of solid tumors during Phase II trials” value (solid tumors) is given as “inactive” and the “chromosomal aberrations and DNA damage” value (DNA [4]) is given as “induced chromosomal aberrations and DNA damage”. For the same molecule, the IC50 ([1]; Homo sapiens, HL-60, read-out: IC50 for Cell growth Inhibition, HL60) was 80 nM, the “activity against the L1210 leukemia” value (L1210 leukemia) was “high activity” and the IC50 ([2]; Mus musculus, L1210, read-out: IC50 for Cell growth Inhibition, L1210) was 4 nM. The “activity against a spectrum of experimental tumors” value (experimental tumors) was “high activity”, the “half life in the presence of fresh mouse blood” value [5] was “about 23 minutes” and the DNA intercalation (DNA [6]) was “DNA intercalator”.
